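Grown in 96-well plates, cells were treated for 48 hours with each compound at five concentrations. Insufficient inhibition: endpoint recorded as highest concentration tested. GI50: concentration for 50% inhibition of growth. Definition used: TGI = concentration required for complete inhibition of growth.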
Tests used:
Assay in all cases: NCI-60 cell line screen, 48 h
SW-620 colon = test system: SW-620 colon
OVCAR-8 ovarian = test system: OVCAR-8 ovarian
T-47D breast = test system: T-47D breast
ACHN renal = test system: ACHN renal
RPMI-8226 leukemia = test system: RPMI-8226 leukemia
MALME-3M melanoma = test system: MALME-3M melanoma
IGROV1 ovarian = test system: IGROV1 ovarian
CAKI-1 renal = test system: CAKI-1 renal
LOX IMVI melanoma = test system: LOX IMVI melanoma
K-562 leukemia = test system: K-562 leukemia
HL-60(TB) leukemia = test system: HL-60(TB) leukemia
A498 renal = test system: A498 renal
UACC-257 melanoma = test system: UACC-257 melanoma
BT-549 breast = test system: BT-549 breast
M14 melanoma = test system: M14 melanoma
SF-268 CNS = test system: SF-268 CNS
HOP-62 NSCLC = test system: HOP-62 NSCLC
TK-10 renal = test system: TK-10 renal
RXF 393 renal = test system: RXF 393 renal
MCF7 breast = test system: MCF7 breast
OVCAR-5 ovarian = test system: OVCAR-5 ovarian
MDA-MB-231 breast = test system: MDA-MB-231 breast
NCI-H460 lung = test system: NCI-H460 lung
A549 NSCLC = test system: A549 NSCLC
PC-3 prostate = test system: PC-3 prostate
COLO 205 colon = test system: COLO 205 colon
MOLT-4 leukemia = test system: MOLT-4 leukemia
NCI-H23 lung = test system: NCI-H23 lung
UO-31 renal = test system: UO-31 renal
HCC-2998 colon = test system: HCC-2998 colon
SK-OV-3 ovarian = test system: SK-OV-3 ovarian
SNB-19 CNS = test system: SNB-19 CNS
HCT-116 colon = test system: HCT-116 colon
HOP-92 NSCLC = test system: HOP-92 NSCLC
SK-MEL-5 melanoma = test system: SK-MEL-5 melanoma
OVCAR-4 ovarian = test system: OVCAR-4 ovarian
MDA-MB-435 = test system: MDA-MB-435
SN12C renal = test system: SN12C renal
EKVX NSCLC = test system: EKVX NSCLC
NCI/ADR-RES ovarian = test system: NCI/ADR-RES ovarian
OVCAR-3 ovarian = test system: OVCAR-3 ovarian
SK-MEL-28 melanoma = test system: SK-MEL-28 melanoma
SK-MEL-2 melanoma = test system: SK-MEL-2 melanoma
SNB-75 CNS = test system: SNB-75 CNS
NCI-H522 lung = test system: NCI-H522 lung
UACC-62 melanoma = test system: UACC-62 melanoma
U251 CNS = test system: U251 CNS
HT29 colon = test system: HT29 colon
SF-295 CNS = test system: SF-295 CNS
786-0 renal = test system: 786-0 renal
KM12 colon = test system: KM12 colon
NCI-H226 lung = test system: NCI-H226 lung
HCT-15 colon = test system: HCT-15 colon
CCRF-CEM leukemia = test system: CCRF-CEM leukemia
SR leukemia = test system: SR leukemia
SF-539 CNS = test system: SF-539 CNS
DU-145 prostate = test system: DU-145 prostate

## CC[C@]12C=CCN3CC[C@]4(C(=C(C(=O)OC)C1)Nc1cc(OC)c(OC(C)=O)cc14)[C@@H]32
SW-620 colon
  GI50: 319 nM
  TGI: 10500 nM
OVCAR-8 ovarian
  GI50: 407 nM
  TGI: > 100000 nM
T-47D breast
  GI50: 1420 nM
  TGI: 17800 nM
ACHN renal
  GI50: 176 nM
  TGI: 2620 nM
RPMI-8226 leukemia
  GI50: 478 nM
  TGI: 12300 nM
MALME-3M melanoma
  GI50: 1420 nM
  TGI: 16100 nM
IGROV1 ovarian
  GI50: 473 nM
  TGI: 20400 nM
CAKI-1 renal
  GI50: 503 nM
  TGI: 15600 nM
LOX IMVI melanoma
  GI50: 254 nM
  TGI: 1270 nM
K-562 leukemia
  GI50: 274 nM
  TGI: 15400 nM
HL-60(TB) leukemia
  GI50: 184 nM
  TGI: 654 nM
A498 renal
  GI50: 133 nM
  TGI: 718 nM
UACC-257 melanoma
  GI50: 1970 nM
  TGI: 17500 nM
BT-549 breast
  GI50: 244 nM
  TGI: 674 nM
M14 melanoma
  GI50: 181 nM
  TGI: 684 nM
SF-268 CNS
  GI50: 399 nM
  TGI: 13200 nM
HOP-62 NSCLC
  GI50: 400 nM
  TGI: 14100 nM
TK-10 renal
  GI50: 1020 nM
  TGI: 7510 nM
RXF 393 renal
  GI50: 389 nM
  TGI: 8880 nM
MCF7 breast
  GI50: 238 nM
  TGI: 14400 nM
OVCAR-5 ovarian
  GI50: 719 nM
  TGI: 16200 nM
MDA-MB-231 breast
  GI50: 389 nM
  TGI: 14500 nM
NCI-H460 lung
  GI50: 360 nM
  TGI: 11600 nM
A549 NSCLC
  GI50: 397 nM
  TGI: 19000 nM
PC-3 prostate
  GI50: 384 nM
  TGI: 15200 nM
COLO 205 colon
  GI50: 769 nM
  TGI: 4520 nM
MOLT-4 leukemia
  GI50: 383 nM
  TGI: 14900 nM
NCI-H23 lung
  GI50: 395 nM
  TGI: 18800 nM
UO-31 renal
  GI50: 483 nM
  TGI: 5600 nM
HCC-2998 colon
  GI50: 416 nM
  TGI: 6790 nM
SK-OV-3 ovarian
  GI50: 325 nM
  TGI: 12500 nM
SNB-19 CNS
  GI50: 591 nM
  TGI: 21500 nM
HCT-116 colon
  GI50: 275 nM
  TGI: 1380 nM
HOP-92 NSCLC
  GI50: 247 nM
  TGI: 10300 nM
SK-MEL-5 melanoma
  GI50: 209 nM
  TGI: 481 nM
OVCAR-4 ovarian
  GI50: 446 nM
  TGI: 17500 nM
MDA-MB-435
  GI50: 100 nM
  TGI: 319 nM
SN12C renal
  GI50: 530 nM
  TGI: 14800 nM
EKVX NSCLC
  GI50: 625 nM
  TGI: 19300 nM
NCI/ADR-RES ovarian
  GI50: 339 nM
  TGI: 89900 nM
OVCAR-3 ovarian
  GI50: 225 nM
  TGI: 602 nM
SK-MEL-28 melanoma
  GI50: 1620 nM
  TGI: 12500 nM
SK-MEL-2 melanoma
  GI50: 689 nM
  TGI: 23000 nM
SNB-75 CNS
  GI50: 308 nM
  TGI: 21000 nM
NCI-H522 lung
  GI50: 81.9 nM
  TGI: 1040 nM
UACC-62 melanoma
  GI50: 326 nM
  TGI: 3080 nM
U251 CNS
  GI50: 386 nM
  TGI: 12000 nM
HT29 colon
  GI50: 1860 nM
  TGI: 11000 nM
SF-295 CNS
  GI50: 377 nM
  TGI: 14600 nM
786-0 renal
  GI50: 318 nM
  TGI: 10000 nM
KM12 colon
  GI50: 303 nM
  TGI: 2640 nM
NCI-H226 lung
  GI50: 917 nM
  TGI: 21900 nM
HCT-15 colon
  GI50: 310 nM
  TGI: 1560 nM
CCRF-CEM leukemia
  GI50: 380 nM
  TGI: 1860 nM
SR leukemia
  GI50: 164 nM
  TGI: 11200 nM

## CCCCCCCCCCCCC[N+](C)(C)Cc1ccccc1
T-47D breast
  GI50: 336 nM
  TGI: 1710 nM
ACHN renal
  GI50: 3410 nM
  TGI: 12800 nM
RPMI-8226 leukemia
  GI50: 451 nM
  TGI: 2520 nM
IGROV1 ovarian
  GI50: 477 nM
  TGI: 1820 nM
CAKI-1 renal
  GI50: 4990 nM
  TGI: 23000 nM
HL-60(TB) leukemia
  GI50: 680 nM
  TGI: 2150 nM
A498 renal
  GI50: 1440 nM
  TGI: 5010 nM
UACC-257 melanoma
  GI50: 1360 nM
  TGI: 2850 nM
BT-549 breast
  GI50: 1130 nM
  TGI: 2420 nM
M14 melanoma
  GI50: 1040 nM
  TGI: 2400 nM
TK-10 renal
  GI50: 871 nM
  TGI: 2210 nM
RXF 393 renal
  GI50: 385 nM
  TGI: 1600 nM
OVCAR-5 ovarian
  GI50: 1470 nM
  TGI: 2920 nM
MDA-MB-231 breast
  GI50: 1350 nM
  TGI: 2900 nM
A549 NSCLC
  GI50: 1610 nM
  TGI: 3170 nM
PC-3 prostate
  GI50: 306 nM
  TGI: 1400 nM
COLO 205 colon
  GI50: 1140 nM
  TGI: 2450 nM
SF-539 CNS
  GI50: 1450 nM
  TGI: 2970 nM
UO-31 renal
  GI50: 2050 nM
  TGI: 6420 nM
SK-OV-3 ovarian
  GI50: 1310 nM
  TGI: 2600 nM
HCT-116 colon
  GI50: 925 nM
  TGI: 2140 nM
HOP-92 NSCLC
  GI50: 338 nM
  TGI: 1830 nM
SK-MEL-5 melanoma
  GI50: 874 nM
  TGI: 2110 nM
SN12C renal
  GI50: 1200 nM
  TGI: 2610 nM
EKVX NSCLC
  GI50: 1570 nM
  TGI: 4520 nM
NCI/ADR-RES ovarian
  GI50: 18000 nM
  TGI: 50500 nM
SK-MEL-28 melanoma
  GI50: 1520 nM
  TGI: 2890 nM
SNB-75 CNS
  GI50: 1500 nM
  TGI: 2970 nM
UACC-62 melanoma
  GI50: 633 nM
  TGI: 1950 nM
DU-145 prostate
  GI50: 1420 nM
  TGI: 2740 nM
HT29 colon
  GI50: 493 nM
  TGI: 1930 nM
SF-295 CNS
  GI50: 1420 nM
  TGI: 2870 nM
786-0 renal
  GI50: 1560 nM
  TGI: 3070 nM
HCT-15 colon
  GI50: 5080 nM
  TGI: 25400 nM
